In patent US12479816B2, “20-HETE formation inhibitors” (UNIVERSITY OF PITTSBURGH—OF THE COMMONWEALTH SYSTEM OF …, priority 2019, dated 2025):
In brackets after ≈: the same amount, converted by molar mass.

Tests used:
rCYP4F2 = target: T1, rCYP4F2 (Homo sapiens, UniProt P78329); assay: Inhibition of 20-HETE formation at 250 or 500 nM in rCYP4F2 incubations; assay type: biochemical; conditions: 500 nM compound, rCYP4F2 25 pmol/mL; for inhibition at 0.5 µM: read-out: rCYP4F2 % inh. @ 500 nM
T1 sequence (P78329 5-520): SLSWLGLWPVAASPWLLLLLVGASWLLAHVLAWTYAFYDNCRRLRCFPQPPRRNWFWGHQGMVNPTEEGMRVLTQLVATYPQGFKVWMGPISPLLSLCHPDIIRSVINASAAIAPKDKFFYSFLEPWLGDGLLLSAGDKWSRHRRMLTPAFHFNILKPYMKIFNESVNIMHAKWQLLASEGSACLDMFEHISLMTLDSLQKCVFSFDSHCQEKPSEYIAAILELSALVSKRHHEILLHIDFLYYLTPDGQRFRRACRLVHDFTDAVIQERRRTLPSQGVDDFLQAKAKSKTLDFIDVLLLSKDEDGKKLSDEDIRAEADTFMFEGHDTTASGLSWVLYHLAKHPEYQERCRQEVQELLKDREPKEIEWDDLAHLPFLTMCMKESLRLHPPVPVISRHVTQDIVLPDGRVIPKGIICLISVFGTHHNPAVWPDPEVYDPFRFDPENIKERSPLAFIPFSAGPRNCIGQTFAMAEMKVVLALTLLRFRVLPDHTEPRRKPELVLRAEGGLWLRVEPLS
Protocol: (§1) To screen the inhibitory effects against 20-HETE formation, compounds were screened in HLM, RLM, RKM and rCYP4F2 microsomal incubations. Compounds dissolved in either 100% methanol or 100% DMSO to yield 10 mM stock solution. Microsomal incubations containing HLM, RLM, RKM (300 μg/ml) or rCYP4F2 (25 pmol/mL), AA (100 μM), NADPH (1 mM) treated with test compounds at various concentrations (500 nM or 250 nM) in a 1 ml total volume in incubation buffer (0.12 M potassium phosphate buffer containing 5 mM magnesium chloride). Reaction was started by adding NADPH to the incubates and was carried out at 37° C. in a shaking water bath for 20 min. Reaction was stopped by placing tubes on ice, followed by adding 125 μl 20-HETE-d6 as internal standard to each sample. Microsomal incubations were extracted with 3 ml ethyl ether twice, dried down under nitrogen gas and reconstituted in 125 μl 80:20 methanol:deionized H2O for analysis. 20-HETE formation was quantified using a validated UPLC-MS/MS assay and normalized by vehicle group. Each compound had three replications (n=3). Vehicle group was used as control to calculate percentage of 20-HETE formation rate. HET0016 (250 nM) was used as positive control. Incubates without NADPH group served as the negative control. An Acquity ultra performance LC autosampler (Waters, Milford, MA) was used to isolate 20-HETE on an UPLC BEH C18, 1.7 μm (2.1×100 mm) reversed-phase column (Waters, Milford, MA) protected by a guard column (2.1×5 mm; Waters, Milford, MA) of the same packing material. Column temperature was maintained at 55° C. Mobile phases consisted of 0.005% acetic acid, 5% acetonitrile in deionized water (A) and 0.005% acetic acid in acetonitrile (B). The flow rate for mobile phases is 0.5 ml/min. The initial mixture of mobile phase was 65:35 of A and B. Mobile phase B increased at 0.4 minutes after injection from 35% to 70% in a linear gradient over 4 minutes, and again increased to 95% over 0.5 minutes where it remained for 0.3 minutes. This was followed by a linear return to initial conditions over 0.1 minutes with a 1.5 minute pre-equilibration period prior to the next sample run. Total run time was 6.4 minutes for each injection. Injection volumes were 7.5 μl. Mass spectrometric analysis was carried out using a TSQ Quantum Ultra (Thermo Fisher Scientific, San Jose, CA) triple quadrupole mass spectrometer using heated electrospray ionization (HESI). Mass spectrometer was operated in negative selective reaction monitoring (SRM) mode with unit resolutions at both Q1 and Q3 set at 0.70 Da full width at half maximum. Scan time was set at 0.01 s and collision gas pressure was 1.3 mTorr. Quantitation of 20-HETE by SRM was performed by monitoring the m/z. Analytical data was acquired and analyzed using Xcaliber 3.0 data system (ThermoFinnigan, San Jose, CA).

[1] = system: 20-HETE formation (CYP4) in HLM; assay: Inhibition of 20-HETE formation at 250 or 500 nM in HLM microsomal incubations; assay type: biochemical, human; conditions: 500 nM compound; HLM 300 μg/ml, AA 100 μM, 20 min
Protocol: as §1

[2] = system: 20-HETE formation (CYP4) in RKM; assay: Inhibition of 20-HETE formation at 250 or 500 nM in RKM microsomal incubations; assay type: biochemical, rat; conditions: 500 nM compound; RKM 300 μg/ml
Protocol: as §1

[3] = system: 20-HETE formation (CYP4) in RLM; assay: Inhibition of 20-HETE formation at 250 or 500 nM in RLM microsomal incubations; assay type: biochemical, rat; conditions: 500 nM compound; RLM 300 μg/ml
Protocol: as §1

[4] = Turbidometric solubility determination; assay type: physicochemical; conditions: PBS with 1% DMSO, aqueous buffer, kinetic from dmso stock, room temperature, OD620, read-out: Max Solub
Protocol: Solubility determinations shown in Table 3 were obtained turbidometrically and in a manner similar to the one described in Perez et al., J. Biomol. Screen, 2015, 20(2), 254-64. The method requires small volumes of 100× stock concentration drug solution to be prepared in DMSO 0, 0.23, 0.47, 0.94, 1.88, 3.75, 7.5, 15.0, 30.0 and […]. The stock drug concentrations are then diluted 1:100 added into triplicate wells containing PBS in a clear bottom 384 well microtiter to achieve final testing concentrations of 0, 2.3, 4.7, 9.4, 18.8, 37.5, 75, 150, 300, 600 μM in 1% DMSO. The plate is allowed to equilibrate with constant shaking for 2 hours at room temperature. The plate is then placed in a SpectroMax V plate reader to measure absorbance at 620 nm. Increase in absorbance is evident in test wells which precipitation of the compound is evident. The plot of OD620 vs. drug concentration is used to calculate the maximum solubility limit as determined by a statistically significant increase in absorbance above the background levels.

Row | Structure (SMILES) | inhibition at 0.5 µM (rCYP4F2) | HLM % inh. @ 500 nM [1] | RKM % inh. @ 500 nM [2] | RLM % inh. @ 500 nM [3] | solubility at 2 h [4] | rCYP4F2 % inh. @ 500 nM (rCYP4F2)
1 | c1cnc(N2CCN(c3cn[nH]c3)CC2)nc1 [Compound 4, 2-(4-(1H-Pyrazol-4-yl)piperazin-1-yl)pyrimidine] | 0% | 0.00% | 0.00% | 0.00% | – | –
2 | Clc1ccc(C2CCN(c3ccn[nH]3)CC2)cc1 [Compound 62, 4-(4-chlorophenyl)-1-(1H-pyrazol-5-yl)piperidine] | 45% | 60.0% | – | 0.00% | 42.4 µM (≈ 11.1 µg/mL) | –
3 | Clc1ccc(C2CCN(c3cn[nH]c3)CC2)cc1 [Compound 63, 4-(4-chlorophenyl)-1-(1H-pyrazol-4-yl)piperidine] | 73.8% | 74.3% | – | 10.30% | 13.3 µM (≈ 3.48 µg/mL) | –
4 | COc1ccc(C2CCN(c3cn[nH]c3)CC2)c(Cl)c1 [Compound 65, 4-(2-Chloro-4-methoxyphenyl)-1-(1H-pyrazol-4-yl)piperidine] | 35% | 57.00% | – | 0.00% | 18.7 µM (≈ 5.46 µg/mL) | –
5 | COc1ccc(C2CCN(c3ccn[nH]3)CC2)c(Cl)c1 [Compound 66, 4-(2-Chloro-4-methoxyphenyl)-1-(1H-pyrazol-5-yl)piperidine] | 58% | 36% | – | 0.00% | 133 µM (≈ 38.8 µg/mL) | –
6 | COc1ccc(C2CCN(c3ccn[nH]3)CC2)cc1Cl [Compound 67, 4-(3-Chloro-4-methoxyphenyl)-1-(1H-pyrazol-5-yl)piperidine] | 90.9% | 83.2% | – | 30.20% | 205 µM (≈ 59.8 µg/mL) | –
7 | Fc1ccc(SC2CCN(c3cn[nH]c3)CC2)cc1 [Compound 70, 4-((4-Fluorophenyl)thio)-1-(1H-pyrazol-4-yl)piperidine] | 80.5% | 84.8% | – | 35.70% | 109 µM (≈ 30.2 µg/mL) | –
8 | CC(=O)N(C)c1ccc(C2CCN(c3ccn[nH]3)CC2)c(F)c1 [Compound 71, N-(4-(1-(1H-Pyrazol-5-yl)piperidin-4-yl)-3-fluorophenyl)-N-methylacetamide] | 52.2% | 82% | – | 25.00% | > 600 µM | –
9 | COc1cc(F)cc(C2CCN(c3cn[nH]c3)CC2)c1 [Compound 72, 4-(3-Fluoro-5-methoxyphenyl)-1-(1H-pyrazol-4-yl)piperidine] | 77% | 77% | – | 11.00% | 234 µM (≈ 64.4 µg/mL) | –
10 | COc1cc(F)cc(C2CCN(c3ccn[nH]3)CC2)c1 [Compound 73, 4-(3-Fluoro-5-methoxyphenyl)-1-(1H-pyrazol-5-yl)piperidine] | 54.7% | 61% | – | 0.00% | 164 µM (≈ 45.2 µg/mL) | –
11 | COc1cc(C2CCN(c3ccn[nH]3)CC2)ccc1F [Compound 74, 4-(4-Fluoro-3-methoxyphenyl)-1-(1H-pyrazol-5-yl)piperidine] | 32% | 55% | – | 0.00% | 201 µM (≈ 55.3 µg/mL) | –

More lines, now with the values ahead:

Row | inhibition at 0.5 µM (rCYP4F2) | HLM % inh. @ 500 nM [1] | RKM % inh. @ 500 nM [2] | RLM % inh. @ 500 nM [3] | solubility at 2 h [4] | rCYP4F2 % inh. @ 500 nM (rCYP4F2) | Structure (SMILES)
12 | 74.5% | 61.10% | – | 0.00% | 127 µM (≈ 35 µg/mL) | – | COc1cc(C2CCN(c3cn[nH]c3)CC2)ccc1F [Compound 75, 4-(4-Fluoro-3-methoxyphenyl)-1-(1H-pyrazol-4-yl)piperidine]
13 | 90% | 86% | – | 42.00% | 89 µM (≈ 25.8 µg/mL) | – | COc1ccc(SC2CCN(c3cn[nH]c3)CC2)cc1 [Compound 80, 4-((4-Methoxyphenyl)thio)-1-(1H-pyrazol-4-yl)piperidine]
14 | 80.3% | 79.4% | – | 42.70% | > 600 µM | – | O=C1CCCN1Cc1ccc(C2CCN(c3ccn[nH]3)CC2)cc1 [Compound 84, 1-(4-(1-(1H-Pyrazol-5-yl)piperidin-4-yl)benzyl)pyrrolidin-2-one]
15 | 72.9% | 34.8% | – | 0.00% | 324 µM (≈ 104 µg/mL) | – | CS(=O)(=O)Cc1ccc(C2CCN(c3cn[nH]c3)CC2)cc1 [Compound 89, 4-(4-((methylsulfonyl)methyl)phenyl)-1-(1H-pyrazol-4-yl)piperidine]
16 | 82.3% | 78.90% | – | 63.60% | 216 µM (≈ 70.1 µg/mL) | – | O=C1CCCN1c1ccc(CC2CCN(c3cn[nH]c3)CC2)cc1 [Compound 107, 1-(4-((1-(1H-Pyrazol-4-yl)piperidin-4-yl)methyl)phenyl)pyrrolidin-2-one]
17 | 83% | 90.00% | – | 41.70% | 187 µM (≈ 59.4 µg/mL) | – | O=S1(=O)Cc2ccc(C3CCN(c4cn[nH]c4)CC3)cc2C1 [Compound 108, 5-(1-(1H-Pyrazol-4-yl)piperidin-4-yl)-1,3-dihydrobenzo[c]thiophene 2,2-dioxide]
18 | 84.1% | 80.4% | – | 63.60% | 421 µM (≈ 144 µg/mL) | – | O=C1CCCN1Cc1ccc(C2CCN(c3ccn[nH]3)CC2)cc1F [Compound 110, 1-(4-(1-(1H-Pyrazol-5-yl)piperidin-4-yl)-2-fluorobenzyl)pyrrolidin-2-one]
19 | 87.4% | 68.7% | – | 36.70% | 74 µM (≈ 25.6 µg/mL) | – | O=S(=O)(Nc1ccc(C2CCN(c3cn[nH]c3)CC2)cc1)C1CC1 [Compound 114, N-(4-(1-(1H-pyrazol-4-yl)piperidin-4-yl)phenyl)cyclopropanesulfonamide]
20 | – | 85.50% | – | 74.30% | 74 µM | 84.20% | Cl.Clc1ccc(CC2CCN(c3cn[nH]c3)CC2)cc1 [Compound 115, 4-(4-Chlorobenzyl)-1-(1H-pyrazol-4-yl)piperidine hydrochloride]
